Source: ChEMBL document CHEMBL5032537, “Synthetic development of sugar amino acid oligomers towards novel podophyllotoxin analogues” (Bioorg Med Chem, 2021)
pIC50: −log10 of the molar value.

Columns and labels:
[1] = system: HT-29; assay: Antiproliferative activity against human HT-29 cells assessed as inhibition of cell proliferation measured after 48 hrs by SRB assay; type: functional, cell-based; settings: HT-29, 48 h
[2] = system: HT-1080; assay: Antiproliferative activity against human HT-1080 cells assessed as inhibition of cell proliferation measured after 48 hrs by SRB assay; type: functional, cell-based; settings: HT-1080, 48 h
[3] = system: M21; assay: Antiproliferative activity against human M21 cells assessed as inhibition of cell proliferation measured after 48 hrs by SRB assay; type: functional, cell-based; settings: M21, 48 h
[4] = system: HaCaT; assay: Antiproliferative activity against human HaCaT cells assessed as inhibition of cell proliferation measured after 48 hrs by SRB assay; type: cell-based

pIC50 [1] | pIC50 [2] | SMILES | pIC50 [3] | pIC50 [4]
6.22 | 6.22 | COc1cc([C@@H]2c3cc4c(cc3[C@@H](N=[N+]=[N-])[C@H]3COC(=O)[C@H]23)OCO4)cc(OC)c1O | 6.22 | 6.30
5.05 | 5.70 | COc1cc([C@@H]2c3cc4c(cc3[C@@H](O[C@@H]3O[C@@H]5CO[C@@H](C)O[C@H]5[C@H](O)[C@H]3O)[C@H]3COC(=O)[C@H]23)OCO4)cc(OC)c1O [ETOPOSIDE] | 6.70 | 5.22
< 4.00 | < 4.00 | COc1cc([C@@H]2c3cc4c(cc3[C@@H](n3cc(CNC(=O)[C@@H]5O[C@H](OC)[C@H](NC(C)=O)[C@@H](O)[C@@H]5O)nn3)[C@H]3COC(=O)[C@H]23)OCO4)cc(OC)c1O | < 4.00 | < 4.00
< 4.00 | < 4.00 | COc1cc([C@@H]2c3cc4c(cc3[C@@H](n3cc(CNC(=O)[C@@H]5O[C@H](OC)[C@H](O)[C@@H](O)[C@@H]5O)nn3)[C@H]3COC(=O)[C@H]23)OCO4)cc(OC)c1O | < 4.00 | < 4.00
< 4.00 | < 4.00 | COc1cc([C@@H]2c3cc4c(cc3[C@@H](n3cc(CNC(=O)[C@@H]5O[C@H](OC)[C@H](N)[C@@H](O)[C@@H]5O)nn3)[C@H]3COC(=O)[C@H]23)OCO4)cc(OC)c1O | < 4.00 | < 4.00
< 6.00 | < 6.00 | COc1cc([C@@H]2c3cc4c(cc3[C@@H](n3cc(CNC(=O)[C@H]5O[C@H](OC)[C@H](NC(=O)OC(C)(C)C)[C@@H](O)[C@@H]5O)nn3)[C@H]3COC(=O)[C@H]23)OCO4)cc(OC)c1O | < 6.00 | < 6.00

SMILES | pIC50 [1] | pIC50 [2] | pIC50 [3] | pIC50 [4]
COc1cc([C@@H]2c3cc4c(cc3[C@@H](O)[C@H]3COC(=O)[C@H]23)OCO4)cc(OC)c1O [4'-DEMETHYLEPIPODOPHYLLOTOXIN] | 6.82 | 6.96 | 6.77 | 6.80
COc1ccc(/C=C\c2cc(OC)c(OC)c(OC)c2)cc1O [COMBRETASTATIN A4] | < 6.00 | 8.59 | 8.72 | 8.47
